Reference: ChEMBL document CHEMBL1145459, “Novel vanilloid receptor-1 antagonists: 2. Structure-activity relationships of 4-oxopyrimidines leading to the selection of a clinical candidate” (J Med Chem, 2007)
In brackets after ≈: the same amount, converted by molar mass. Values belong to the molecule of their own block, whether it stands above or below them. Activity calls are given as the source filed them. The rule behind the calls is not given here.

Experiments:
[1] = Volume of distribution at steady state in dog at 1 mg/kg, iv; type: ADME, organism-based, Canis lupus familiaris; set-up: dose 1 mg/kg, route intravenous; conditions: in vivo, read-out: Vss
Rattus norvegicus [2] = assay: Inhibition of capsaicin-induced flinching in Sprague-Dawley rat at 3 mg/kg, po upto 24 hrs; type: functional, organism-based; set-up: dose 3 mg/kg
Rattus norvegicus [3] = assay: Efficacy in capsaicin-induced flinching in po dosed Sprague-Dawley rat; type: functional
[4] = Clearance in Sprague-Dawley rat at 1 mg/kg, iv; type: ADME, organism-based; set-up: dose 1 mg/kg, route intravenous; conditions: in vivo
[5] = Metabolic stability in rat liver microsomes assessed as clearance; type: ADME, Microsome
[6] = Half life in dog at 1 mg/kg, iv; type: ADME, organism-based, Canis lupus familiaris; set-up: dose 1 mg/kg, route intravenous; conditions: in vivo
[7] = Clearance in dog at 1 mg/kg, iv; type: ADME, organism-based, Canis lupus familiaris; set-up: dose 1 mg/kg, route intravenous; conditions: in vivo
[8] = biological target: T1, Transient receptor potential cation channel subfamily V member 1 (Homo sapiens, UniProt Q8NER1); assay: Antagonist activity at human TRPV1 expressed in CHO cells assessed as inhibition of heat-induced calcium influx; type: functional, cell-based
[9] = Volume of distribution at steady state in monkey at 1 mg/kg, iv; type: ADME, organism-based, Macaca mulatta; set-up: dose 1 mg/kg, route intravenous; conditions: rhesus monkey, in vivo, read-out: Vss
[10] = Solubility in simulated intestinal fluid by high-throughput automated format; type: physicochemical
[11] = Clearance in rat at 1 mg/kg, iv; type: ADME, organism-based; set-up: dose 1 mg/kg, route intravenous; conditions: in vivo
[12] = Volume of distribution at steady state in Sprague-Dawley rat at 1 mg/kg, iv; type: ADME, organism-based; set-up: dose 1 mg/kg, route intravenous; conditions: in vivo, read-out: Vss
[13] = AUC (0 to infinity) in rat at 1 mg/kg, iv; type: ADME, organism-based; set-up: time infinity, dose 1 mg/kg, route intravenous; conditions: plasma
[14] = biological target: T1, Transient receptor potential cation channel subfamily V member 1; assay: Antagonist activity at human TRPV1 expressed in CHO cells assessed as inhibition of acid-induced calcium influx; type: functional, cell-based
[15] = Aqueous solubility in hydrochloric acid by high-throughput automated format; type: physicochemical
[16] = Solubility in PBS by high-throughput automated format; type: physicochemical
[17] = Bioavailability in fasted Sprague-Dawley rat at 3 mg/kg, po; type: ADME, organism-based; conditions: in vivo
[18] = Bioavailability in monkey at 1 mg/kg, po; type: ADME, organism-based, Macaca mulatta; conditions: rhesus monkey, in vivo
[19] = AUC (0-infinity) in dog at 1 mg/kg, iv; type: ADME, organism-based, Canis lupus familiaris; set-up: dose 1 mg/kg, route intravenous, time infinity; conditions: plasma
Rattus norvegicus [20] = assay: Inhibition of CFA-induced paw thermal hyperalgesia in po dosed Sprague-Dawley rat; type: functional; conditions: read-out: MED
[21] = Half life in Sprague-Dawley rat at 1 mg/kg, iv; type: ADME, organism-based; set-up: dose 1 mg/kg, route intravenous; conditions: in vivo
[22] = Bioavailability in dog at 1 mg/kg, po; type: ADME, organism-based, Canis lupus familiaris; conditions: in vivo
[23] = Clearance in monkey at 1 mg/kg, iv; type: ADME, organism-based, Macaca mulatta; set-up: dose 1 mg/kg, route intravenous; conditions: rhesus monkey, in vivo
[24] = AUC (0-infinity) in monkey at 1 mg/kg, iv; type: ADME, organism-based, Macaca mulatta; set-up: time infinity, dose 1 mg/kg, route intravenous; conditions: rhesus monkey, plasma
[25] = Half life in monkey at 1 mg/kg, iv; type: ADME, organism-based, Macaca mulatta; set-up: dose 1 mg/kg, route intravenous; conditions: rhesus monkey, in vivo
[26] = Metabolic stability in human liver microsomes assessed as clearance; type: ADME, Microsome
Rattus norvegicus [27] = assay: Inhibition of CFA-induced paw thermal hyperalgesia in Sprague-Dawley rat at 10 mg/kg, po relative to control; type: functional; set-up: scale not given: the % may be the effect or the level left
[28] = In vivo clearance in Sprague-Dawley rat at 1 mg/kg, iv; type: ADME, organism-based; set-up: dose 1 mg/kg, route intravenous
[29] = AUC (0-infinity) in Sprague-Dawley rat at 1 mg/kg, iv; type: ADME, organism-based; set-up: time infinity, dose 1 mg/kg, route intravenous; conditions: plasma
[30] = Volume of distribution at steady state at 1 mg/kg, iv; type: ADME, organism-based; set-up: dose 1 mg/kg, route intravenous; conditions: rat, in vivo, read-out: Vss
[31] = Half life in rat at 1 mg/kg, iv; type: ADME, organism-based; set-up: dose 1 mg/kg, route intravenous; conditions: in vivo
[32] = Bioavailability in rat at 1 mg/kg, po; type: ADME, organism-based; conditions: in vivo
[33] = biological target: T1, Transient receptor potential cation channel subfamily V member 1; assay: Antagonist activity at human TRPV1 expressed in CHO cells assessed as inhibition of capsaicin-induced calcium influx; type: functional, cell-based
[34] = biological target: T2, Transient receptor potential cation channel subfamily V member 1 (Rattus norvegicus, UniProt O35433); assay: Antagonist activity at rat TRPV1 expressed in CHO cells assessed as inhibition of acid-induced calcium influx; type: functional, cell-based
[35] = Bioavailability in fasted Sprague-Dawley rat at 5 mg/kg, po; type: ADME, organism-based; conditions: in vivo
[36] = biological target: T2, Transient receptor potential cation channel subfamily V member 1; assay: Antagonist activity at rat TRPV1 expressed in CHO cells assessed as inhibition of capsaicin-induced calcium influx; type: functional, cell-based
[37] = Half life in rat; type: ADME, organism-based; conditions: in vivo
Rattus norvegicus [38] = assay: Blockade of capsaicin-induced hypothermia in rat at 3 mg/kg, po by telemetry model; type: functional

T2 sequence (O35433 whole entry): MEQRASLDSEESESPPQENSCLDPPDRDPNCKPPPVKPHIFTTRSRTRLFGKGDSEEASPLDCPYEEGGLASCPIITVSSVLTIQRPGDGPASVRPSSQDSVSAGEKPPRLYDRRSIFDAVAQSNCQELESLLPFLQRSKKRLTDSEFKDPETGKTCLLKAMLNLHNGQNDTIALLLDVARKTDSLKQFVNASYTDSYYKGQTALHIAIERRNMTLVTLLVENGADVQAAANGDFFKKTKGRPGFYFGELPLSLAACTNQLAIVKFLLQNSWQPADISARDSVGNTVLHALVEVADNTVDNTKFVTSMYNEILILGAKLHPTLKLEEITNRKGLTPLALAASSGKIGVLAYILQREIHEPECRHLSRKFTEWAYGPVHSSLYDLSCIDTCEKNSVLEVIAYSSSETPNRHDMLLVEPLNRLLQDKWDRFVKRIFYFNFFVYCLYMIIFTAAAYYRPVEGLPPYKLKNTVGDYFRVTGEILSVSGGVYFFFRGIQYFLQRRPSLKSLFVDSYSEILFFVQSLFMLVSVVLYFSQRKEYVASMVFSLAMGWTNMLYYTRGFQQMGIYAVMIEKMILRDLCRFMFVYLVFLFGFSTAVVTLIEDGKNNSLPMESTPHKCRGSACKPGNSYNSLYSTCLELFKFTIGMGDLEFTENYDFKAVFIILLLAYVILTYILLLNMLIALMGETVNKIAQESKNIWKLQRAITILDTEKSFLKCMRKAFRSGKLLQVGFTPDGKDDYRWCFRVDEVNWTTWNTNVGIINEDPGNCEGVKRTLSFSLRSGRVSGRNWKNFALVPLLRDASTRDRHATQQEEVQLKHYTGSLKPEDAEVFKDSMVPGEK
T1 sequence (Q8NER1 whole entry): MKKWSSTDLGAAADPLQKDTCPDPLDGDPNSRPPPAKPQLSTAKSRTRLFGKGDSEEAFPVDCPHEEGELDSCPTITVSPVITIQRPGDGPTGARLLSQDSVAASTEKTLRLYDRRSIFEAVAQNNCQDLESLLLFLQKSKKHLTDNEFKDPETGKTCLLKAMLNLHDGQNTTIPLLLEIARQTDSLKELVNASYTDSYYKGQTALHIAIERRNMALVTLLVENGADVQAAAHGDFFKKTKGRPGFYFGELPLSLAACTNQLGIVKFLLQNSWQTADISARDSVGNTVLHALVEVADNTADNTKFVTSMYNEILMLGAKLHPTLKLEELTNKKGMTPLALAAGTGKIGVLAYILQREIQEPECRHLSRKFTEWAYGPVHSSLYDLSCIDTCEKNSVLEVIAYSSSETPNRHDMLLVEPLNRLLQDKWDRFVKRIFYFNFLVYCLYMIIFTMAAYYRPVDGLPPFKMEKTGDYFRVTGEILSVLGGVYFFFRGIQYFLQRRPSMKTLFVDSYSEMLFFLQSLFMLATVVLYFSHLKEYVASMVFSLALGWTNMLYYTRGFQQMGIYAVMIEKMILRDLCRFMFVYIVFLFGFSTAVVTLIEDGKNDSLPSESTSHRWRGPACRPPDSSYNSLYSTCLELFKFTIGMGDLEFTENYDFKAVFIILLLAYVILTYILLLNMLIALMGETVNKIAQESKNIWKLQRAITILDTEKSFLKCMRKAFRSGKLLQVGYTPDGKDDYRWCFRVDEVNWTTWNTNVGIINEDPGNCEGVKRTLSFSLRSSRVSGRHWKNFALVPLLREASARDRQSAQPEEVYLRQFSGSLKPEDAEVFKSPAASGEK

IC50 [34]: > 4 µM
Compound: FC(F)(F)c1ccc(-c2cc(Oc3ccc4ccccc4n3)ncn2)cc1

IC50 [36]: 0.46 µM
IC50 [34]: > 4 µM
Compound: FC(F)(F)c1ccc(-c2cc(Oc3ccc4ccncc4c3)ncn2)cc1

IC50 [36]: > 4 µM
IC50 [34]: > 4 µM
Compound: O=c1ccc2cccc(Oc3cc(-c4ccc(C(F)(F)F)cc4)ncn3)c2[nH]1

IC50 [36]: > 4 µM
IC50 [34]: > 4 µM
Compound: FC(F)(F)c1ccc(-c2cc(Oc3ccnc4ccccc34)ncn2)cc1

half-life [37]: 2.8 h
Compound: FC(F)(F)c1ccc(-c2cc(Oc3ccc4cccnc4c3)ncn2)cc1

IC50 [36]: 0.063 µM
IC50 [34]: 0.016 µM
microsomal CLint [5]: 15 µL/min/mg
microsomal CLint [26]: < 14 µL/min/mg
clearance [28]: 71.7 mL/min/kg
Compound: Nc1cnc2cccc(Oc3cc(-c4ccc(C(F)(F)F)cc4)ncn3)c2n1
Activity (Rattus norvegicus [38]): 100%

Further lines, the molecule ahead of its results:

Compound: CC(=O)Nc1nc2c(Oc3cc(-c4ccc(C(F)(F)F)cc4)ncn3)cccc2s1 [AMG-517]
Vd [1]: 7 L/kg
Activity (Rattus norvegicus [2]): Active
ED50 (Rattus norvegicus [3]): 0.35 mg/kg
clearance [4]: 3.17 mL/min/kg
microsomal CLint [5]: 50 µL/min/mg
half-life [6]: 41 h
clearance [7]: 2.33 mL/min/kg
IC50 [8]: 0.0013 µM
Vd [9]: 2.3 L/kg
solubility [10]: 6.6 µg/mL (≈ 15.3 µM)
clearance [11]: 2 mL/min/kg
Vd [12]: 1.56 L/kg
AUC(0-inf) [13]: 8800 ng·h/mL
IC50 [14]: 0.00062 µM
solubility [15]: < 1 µg/mL
solubility [16]: < 1 µg/mL
bioavailability [17]: 32%
bioavailability [18]: 52%
AUC(0-inf) [19]: 7400 ng·h/mL
minimal effective dose (Rattus norvegicus [20]): 0.83 mg/kg
half-life [21]: 6.3 h
bioavailability [22]: 23%
clearance [23]: 0.5 mL/min/kg
AUC(0-inf) [24]: 37000 ng·h/mL
half-life [25]: 62 h
microsomal CLint [26]: < 5 µL/min/mg
Activity (Rattus norvegicus [27]): 35%
clearance [28]: 4.17 mL/min/kg
AUC(0-inf) [29]: 5400 ng·h/mL
Vd [30]: 4 L/kg
half-life [31]: 31 h
bioavailability [32]: 51%
IC50 [33]: 0.00076 µM

Compound: Nc1nc2c(Oc3cc(-c4ccc(C(F)(F)F)cc4)ncn3)cccc2[nH]c1=O
bioavailability [35]: 7%
clearance [4]: 3.28 mL/min/kg
microsomal CLint [5]: < 14 µL/min/mg
IC50 [8]: 0.0004 µM
solubility [10]: 9.2 µg/mL (≈ 23 µM)
Vd [12]: 1.69 L/kg
IC50 [14]: 0.0009 µM
solubility [15]: < 1 µg/mL
solubility [16]: < 1 µg/mL
half-life [21]: 6 h
microsomal CLint [26]: < 14 µL/min/mg
clearance [28]: 4.33 mL/min/kg
AUC(0-inf) [29]: 5140 ng·h/mL
IC50 [33]: 0.0008 µM

Compound: Nc1nc2c(Oc3cc(-c4ccc(C(F)(F)F)cc4)ncn3)cccc2s1
IC50 [36]: 0.0012 µM
IC50 [34]: > 4 µM
microsomal CLint [5]: 47 µL/min/mg
microsomal CLint [26]: < 5 µL/min/mg
clearance [28]: 3.67 mL/min/kg

Compound: CC(=O)N(C)c1nc2c(Oc3cc(-c4ccc(C(F)(F)F)cc4)ncn3)cccc2s1
IC50 [36]: > 4 µM
IC50 [34]: 0.86 µM

Compound: CCC(=O)Nc1nc2c(Oc3cc(-c4ccc(C(F)(F)F)cc4)ncn3)cccc2s1
IC50 [34]: 1.5 µM
